Assay results taken from ChEMBL document CHEMBL1149751, “Bioactive constituents from the twigs of Asimina parviflora” (J Nat Prod, 1992).
≈ marks a conversion by molar mass, not a printed value.

Experiments:
[1] = Toxicity in brine shrimp; format: organism-based; conditions: artemia, in vivo
A549 = test: Cytotoxicity against human A549 cells after 7 days; format: functional; conditions: for EC50: Homo sapiens, A549, 168 h, read-out: ED50 (the source's name)
MCF7 = test: Cytotoxicity against human MCF7 cells after 7 days; format: functional; conditions: MCF7, 168 h, read-out: ED50 (the source's name)
HT-29 = test: Cytotoxicity against human HT-29 cells after 7 days; format: functional; conditions: for EC50: Homo sapiens, HT-29, 168 h, read-out: ED50 (the source's name)

Compound | LC50 [1] [µg/mL] | EC50 (A549) [µg/mL] | EC50 (MCF7) [µg/mL] | EC50 (HT-29) [µg/mL] | ED50 (A549) [×10⁻⁴ ug/ml] | ED50 (HT-29) [×10⁻¹⁵ ug/ml]
CCCCCCCCCCCCCCC/C=C\CCCCC(N)=O | 2.45 (≈ 7.26 µM) | 3.16 (≈ 9.36 µM) | 2.91 (≈ 8.62 µM) | < 0.01 |  | 
COc1c(OC)c2c(C)cc3c(O)cccc3c2[nH]c1=O [ASIMICILONE] | 2.15 (≈ 7.54 µM) | 2.13 (≈ 7.47 µM) | 7.22 (≈ 25.3 µM) | 3.25 (≈ 11.4 µM) |  | 
CCCCCCCCCCC(O)C1CCC(C2CCC(C(O)CCCCCCCC[C@H](O)CC3=C[C@@H](C)OC3=O)O2)O1 (stereo partly drawn) [ASIMICIN] |  |  |  |  | 8.43 | <1
CCCCCCCCCC[C@@H](O)[C@H]1CC[C@H]([C@H]2CC[C@H]([C@H](O)CCCCCCCCCC[C@@H](O)CC3=C[C@H](C)OC3=O)O2)O1 [ASIMICIN] | 0.025 (≈ 0.0401 µM) |  |  |  |  | 
COc1cccc2c1C(=O)c1c(O)c3c(c(O)c1C2=O)C[C@@](O)(C(=O)CO)C[C@@H]3O[C@H]1C[C@H](N)[C@H](O)[C@H](C)O1 [DOXORUBICIN] | 0.088 (≈ 0.162 µM) |  | 0.231 (≈ 0.425 µM) | 0.00445 (≈ 0.00819 µM) | 5.04 | 
CC[C@H](CC[C@@H](C)[C@H]1CC[C@H]2[C@@H]3CC=C4C[C@@H](O[C@@H]5O[C@H](CO)[C@@H](O)[C@H](O)[C@H]5O)CC[C@]4(C)[C@H]3CC[C@]12C)C(C)C [SITOGLUSIDE] | 0.14 (≈ 0.243 µM) | 4.73 (≈ 8.2 µM) | 44.4 (≈ 77 µM) | 0.444 (≈ 0.77 µM) |  | 
COc1cc([C@H]2OC[C@H]3[C@@H]2CO[C@@H]3c2cc(OC)c(O)c(OC)c2)cc(OC)c1O [SYRINGARESINOL] | 0.65 (≈ 1.55 µM) | 13.9 (≈ 33.3 µM) | 30.3 (≈ 72.4 µM) | 0.227 (≈ 0.542 µM) |  | 
